Laboratory results reported in patent publication US20040248769A1, “Enzyme inhibitors for inactivating allergens” (priority 2001, published 2004).
Where “and” joins values, the source holds several entries; their conditions need not be identical. Equal values may be shown once. Values belong to the compound of their own block, whether it stands above or below them. *1 amine or outer side, *2 acyl side, *3 side chain or, on linkers, in order; H or OH if unused. Where a SMILES comes first, the peptide text is derived from it. The star is where a group is joined. AMC = Cc1cc(=O)oc2cc(N*)ccc12; Suc = O=C(CCC(=O)[*:2])[*:1]; Cbz = O=C(OCc1ccccc1)*; Bz = O=C(c1ccccc1)*; CH2Cl = ClC*

Columns and labels:
[1] = system: Cat1 S1 fur extract proteolytic activity; test: Proteolytic activity of fur extract against NHMec substrates; format: biochemical, cat; details: sample Cat1 S1, 5 μM substrate, 37° C., pH 7.5
Method: (§1) A clean pet brush was used to brush three common English domestic cats. Fur from guinea pigs, rabbit, dogs and horse was collected in the same way. A different brush was used for each species and between brushings these were cleaned thoroughly in a denaturing detergent solution (Fairy® detergent) and then ethanol. The brushings were transferred to a sterile universal container and extracted by shaking in an extraction buffer, 50 mM Tris.HCl, 5 mM CaCl2, pH 7.5 (0.1 g/ml). The solution was recovered by centrifugation and stored at −20° C. in aliquots. Saliva was collected from a mastiff-type dog and stored frozen in aliquots until assayed. Sample aliquots were assayed for proteolytic activity using fluorometric blocked peptidylaminomethylcoumarylamide substrates in the cuvette of a Perkin Elmer fluorimeter at 37° C. The fluorimeter was standardised with a known concentration of methylcoumarin, and the assays were designed so that no more than 10% substrate hydrolysis occurred.
(§2) Assays were performed in assay buffer; 50 mM Tris.HCl, 5 mM CaCl2, 0.1% CHAPS, pH 7.5. Data were collected in real-time on a personal computer using the Flusys software package.
(§3) In the first series of experiments the sample (12 μl) was assayed against a range of serine and cysteine proteinase aminomethylcoumarylamide (NHMec) substrates (obtained commercially from Bachem) under standard conditions of 5 μM substrate concentration (from a 100-fold stock solution in dimethyl sulfoxide) to give a final volume of 120 μl. After addition of substrate the rate without sample was determined (which in all cases was zero), after which the sample was applied and the progress of the reaction was followed for a further 15 min. The slope obtained (fluorescence vs time) was analysed by linear regression and converted to rate of product formation (nM/min) see results table 2.

[2] = system: Cat2 S1 fur extract proteolytic activity; test: as above; format: biochemical, cat; details: sample Cat2 S1, 5 μM substrate, 37° C., pH 7.5
Method: as §1, §2, §3

[3] = system: Cat1 S3 fur extract proteolytic activity; test: as above; format: biochemical, cat; details: sample Cat1 S3, 5 μM substrate, 37° C., pH 7.5
Method: as §1, §2, §3

[4] = system: Cat1 S3 fur extract proteolytic activity; test: Inhibition of the proteolytic activity in animal fur by proteinase inhibitors; format: biochemical, cat; details: Cat1 S3, 10 μM inhibitor, substrate 1 Z-Gly-Gly-Arg-NHMec
Method: (§4) […] The assay was begun with substrate and sample and a continuous rate of product formation (nM/min) was measured (v0) for 15 min. The inhibitor was added to a final concentration of 10 μM in negligible volume from stock solution in dimethyl sulfoxide. The assay was continued for a further 15 min.
(§5) Under these conditions reversible inhibition can be measured as the new steady state (v1) with percentage inhibition being 1−(v1/v0)×100. Irreversible inhibition is measured as a second order rate constant and is time dependent but as long as the inhibitor is present in molar excess should always lead eventually to total inhibition. No distinction was made and inhibition is presented as a percentage of full activity. See results table 4.

[5] = system: G.pig2 S1 fur extract proteolytic activity; test: as above; format: biochemical, guinea pig; details: G.pig2 S1, 10 μM inhibitor, substrate 2 Z-Phe-Arg-NHMec
Method: as §4, §5

[6] = system: Horse1 S1 mane extract proteolytic activity; test: as above; format: biochemical, horse; details: Horse1 S1, 10 μM inhibitor, substrate 2 Z-Phe-Arg-NHMec
Method: as §4, §5

[7] = system: Horse1 S2 fur extract proteolytic activity; test: as above; format: biochemical, horse; details: Horse1 S2, 10 μM inhibitor, substrate 2 Z-Phe-Arg-NHMec
Method: as §4, §5

[8] = system: Dog2 S1 fur extract proteolytic activity; test: as above; format: biochemical, dog; details: Dog2 S1, 10 μM inhibitor, substrate 2 Z-Phe-Arg-NHMec
Method: as §4, §5

cat fur enzyme(s) = test: Rates of cleavage at varying substrate concentration and Km; format: biochemical; details: for Rate: cat fur sample; for Km: non-linear regression, Enzfitter, rough estimate
Method: as §3
A rough estimate of the Km for the cleavage of Z-Gly-Gly-Arg-NHMec and of Z-Phe-Arg-NHMec by the cat fur enzyme(s) were determined using the same procedure with varying concentrations of these substrates see results table 3.
As the activity follows normal Michaelis-Menten kinetics it is clear that it is due to the activity of one or more biological catalysts or enzymes.

[9] = system: Cat3 S1 fur extract proteolytic activity; test: Proteolytic activity of fur extract against NHMec substrates; format: biochemical, cat; details: sample Cat3 S1, 5 μM substrate, 37° C., pH 7.5
Method: as §1, §2, §3

[10] = system: Rabbit1 S1 fur extract proteolytic activity; test: as above; format: biochemical, rabbit; details: sample Rabbit1 S1, 5 μM substrate, 37° C., pH 7.5
Method: as §1, with “Sample aliquots were assayed for proteolytic activity using fluorometric blocked peptidylaminomethylcoumarylamide substrates in the cuvette of a Perkin Elmer fluorimeter at 37° C. The fluorimeter was standardised with a known concentration of methylcoumarin, and the assays were designed so that no more than 10% substrate hydrolysis occurred.” left out
as §3

[11] = system: Dog1 S1 fur extract proteolytic activity; test: as above; format: biochemical, dog; details: sample Dog1 S1 (fur), 5 μM substrate, 37° C., pH 7.5
Method: as §1, with “Sample aliquots were assayed for proteolytic activity using fluorometric blocked peptidylaminomethylcoumarylamide substrates in the cuvette of a Perkin Elmer fluorimeter at 37° C. The fluorimeter was standardised with a known concentration of methylcoumarin, and the assays were designed so that no more than 10% substrate hydrolysis occurred.” left out
as §3

[12] = system: Dog1 S2 saliva proteolytic activity; test: Proteolytic activity of saliva against NHMec substrates; format: biochemical, dog; details: sample Dog1 S2 (saliva), 5 μM substrate, 37° C., pH 7.5
Method: as §1, with “Sample aliquots were assayed for proteolytic activity using fluorometric blocked peptidylaminomethylcoumarylamide substrates in the cuvette of a Perkin Elmer fluorimeter at 37° C. The fluorimeter was standardised with a known concentration of methylcoumarin, and the assays were designed so that no more than 10% substrate hydrolysis occurred.” left out
as §3

[13] = system: G. pig1 S1 fur extract proteolytic activity; test: Proteolytic activity of fur extract against NHMec substrates; format: biochemical, guinea pig; details: sample G. pig1 S1, 5 μM substrate, 37° C., pH 7.5
Method: as §1, with “Sample aliquots were assayed for proteolytic activity using fluorometric blocked peptidylaminomethylcoumarylamide substrates in the cuvette of a Perkin Elmer fluorimeter at 37° C. The fluorimeter was standardised with a known concentration of methylcoumarin, and the assays were designed so that no more than 10% substrate hydrolysis occurred.” left out
as §3

[14] = system: G. pig2 S1 fur extract proteolytic activity; test: as above; format: biochemical, guinea pig; details: sample G. pig2 S1, 5 μM substrate, 37° C., pH 7.5
Method: as §1, with “Sample aliquots were assayed for proteolytic activity using fluorometric blocked peptidylaminomethylcoumarylamide substrates in the cuvette of a Perkin Elmer fluorimeter at 37° C. The fluorimeter was standardised with a known concentration of methylcoumarin, and the assays were designed so that no more than 10% substrate hydrolysis occurred.” left out
as §3

SMILES: Cc1cc(=O)oc2cc(NC(=O)[C@H](CCCCN)NC(=O)[C@H](Cc3ccccc3)NC(=O)[C@H](C)NC(=O)CCC(=O)O)ccc12 [Suc-Ala-Phe-Lys-NHMec] (Suc-Ala-Phe-Lys-{AMC})
- Rate [1]: No activity
- Rate [2]: No activity

SMILES: Cc1cc(=O)oc2cc(NC(=O)[C@H](CCCN=C(N)N)NC(=O)[C@@H](NC(=O)[C@H](Cc3ccccc3)NC(=O)c3ccccc3)C(C)C)ccc12 [Bz-Phe-Val-Arg-NHMec] (Bz-Phe-Val-Arg-{AMC})
- Rate [3]: 32.1 nM/min

- % Inhibition [4]: 100%
- v1 (rate after inhibitor) [4]: 0.002 nM/min
- % Inhibition [5]: 94.8%
- v1 (rate after inhibitor) [5]: 0.964 nM/min
- % Inhibition [6]: 100%
- v1 (rate after inhibitor) [6]: 0 nM/min
- % Inhibition [7]: 100%
- v1 (rate after inhibitor) [7]: 0 nM/min
- % Inhibition [8]: 71.2%
- v1 (rate after inhibitor) [8]: 0.184 nM/min
SMILES: N=C(N)SCCCOc1oc(=O)c2cc(N)ccc2c1Cl [ACITIC, 7-amino-4-chloro-3-(-3-isothiureido-propoxy) isocoumarin]

SMILES: Cc1cc(=O)oc2cc(NC(=O)[C@@H](NC(=O)[C@@H]3CCCN3C(=O)[C@H](C)NC(=O)[C@H](C)NC(=O)CCC(=O)O)C(C)C)ccc12 [Suc-Ala-Ala-Pro-Val-NHMec] (Suc-AAPV-{AMC})
- Rate [1]: No activity
- Rate [2]: No activity

SMILES: Cc1cc(=O)oc2cc(NC(=O)[C@H](Cc3ccccc3)NC(=O)[C@H](C)NC(=O)[C@H](C)NC(=O)CCC(=O)O)ccc12 [Suc-Ala-Ala-Phe-NHMec] (Suc-Ala-Ala-Phe-{AMC})
- Rate [1]: No activity
- Rate [2]: 0.03 nM/min

- Rate (cat fur enzyme(s); [Substrate] 5 μM): 1.47 nM/min
- Rate (cat fur enzyme(s); [Substrate] 10 μM): 2.42 nM/min
- Rate (cat fur enzyme(s); [Substrate] 20 μM): 3.41 nM/min
- Rate (cat fur enzyme(s); [Substrate] 40 μM): 4.82 nM/min and 8.84 nM/min
- Rate (cat fur enzyme(s); [Substrate] 60 μM): 10.01 nM/min
- Rate (cat fur enzyme(s); [Substrate] 80 μM): 13.27 nM/min
- Rate (cat fur enzyme(s); [Substrate] 100 μM): 11.40 nM/min
- Rate (cat fur enzyme(s); [Substrate] 125 μM): 13.49 nM/min
- Km (cat fur enzyme(s)): 95 ± 47 µM
SMILES: Cc1cc(=O)oc2cc(NC(=O)[C@H](CCCN=C(N)N)NC(=O)CNC(=O)CNC(=O)OCc3ccccc3)ccc12 [Z-Gly-Gly-Arg-NHMec]
- Rate [1]: 0.87 nM/min
- Rate [2]: 1.35 nM/min

- % Inhibition [4]: 98.7%
- v1 (rate after inhibitor) [4]: 0.143 nM/min
SMILES: NC(N)=NCCC[C@H](NC(=O)CNC(=O)[C@@H](N)CCC(=O)O)C(=O)CCl [H-Glu-Gly-Arg-chloromethane] (H-Glu-Gly-Arg-CH2Cl)

- Rate (cat fur enzyme(s); [Substrate] 0.5 μM): 3.74 nM/min
- Rate (cat fur enzyme(s); [Substrate] 1.0 μM): 6.99 nM/min
- Rate (cat fur enzyme(s); [Substrate] 2.0 μM): 10.2 nM/min
- Rate (cat fur enzyme(s); [Substrate] 5 μM): 27.3 nM/min
- Rate (cat fur enzyme(s); [Substrate] 60 μM): 35.4 nM/min
- Rate (cat fur enzyme(s); [Substrate] 80 μM): 32.3 nM/min
- Rate (cat fur enzyme(s); [Substrate] 100 μM): 33.7 nM/min
- Km (cat fur enzyme(s)): 3.2 ± 0.9 µM
SMILES: Cc1cc(=O)oc2cc(NC(=O)C(CCCN=C(N)N)NC(=O)C(Cc3ccccc3)NC(=O)OCc3ccccc3)ccc12 (stereo not drawn) [Z-Phe-Arg-NHMec] (Cbz-Phe-Arg-{AMC}; configuration not given here)
- Rate [3]: 43.5 nM/min
- Rate [9]: 24.5 nM/min
- Rate [10]: 3.93 nM/min
- Rate [11]: 40.6 nM/min
- Rate [12]: 1786.9 nM/min
- Rate [13]: 9.11 nM/min
- Rate [14]: 18.66 nM/min
